Counter-ions that a name gives are not always drawn. Like-named read-outs stand apart in the source and are kept apart here.
Key:
[1] = molecular target: CDK2/Cyclin A (Homo sapiens, UniProt P24941); assay: Inhibition of CDK2/Cyclin A Retinoblastoma Kinase Activity; type: biochemical; settings: for Ki: apparent Ki, CDK2/proteolyzed cyclin A, Rb fragment substrate, 25 μM ATP
Outline: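 Baculovirus-expressed CDK2 complexed with proteolyzed cyclin A (10 or 19 nM), Rb fragment substrate, 25 μM [32P/33P]ATP, HEPES pH 7.4, 30 °C for 60 or 75 min under initial-rate conditions. Filter capture and phosphorimager readout; apparent Ki fitted to competitive or tight-binding competitive inhibition.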

[2] = molecular target: human CDK4 and genetically truncated (1-264) cyclin D3 (Homo sapiens, UniProt P11802); assay: Inhibition of CDK4/Cyclin D Retinoblastoma Kinase Activity; type: biochemical; settings: for Ki: apparent Ki, CDK4/truncated cyclin D3, Rb fragment substrate, 25 μM ATP
human CDK4 and genetically truncated (1-264) cyclin D3, sequence (P11802 whole entry, the tested form may be a part): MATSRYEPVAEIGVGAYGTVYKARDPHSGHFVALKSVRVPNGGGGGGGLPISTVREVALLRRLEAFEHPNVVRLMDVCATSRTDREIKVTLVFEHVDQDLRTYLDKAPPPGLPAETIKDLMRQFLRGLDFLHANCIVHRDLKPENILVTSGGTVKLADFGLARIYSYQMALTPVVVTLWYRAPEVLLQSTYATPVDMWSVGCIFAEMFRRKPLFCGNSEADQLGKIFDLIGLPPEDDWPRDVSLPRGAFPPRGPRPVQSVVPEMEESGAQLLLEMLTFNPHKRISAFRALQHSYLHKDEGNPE
human CDK4 and genetically truncated (1-264) cyclin D3, sequence (P30281 1-264 partner): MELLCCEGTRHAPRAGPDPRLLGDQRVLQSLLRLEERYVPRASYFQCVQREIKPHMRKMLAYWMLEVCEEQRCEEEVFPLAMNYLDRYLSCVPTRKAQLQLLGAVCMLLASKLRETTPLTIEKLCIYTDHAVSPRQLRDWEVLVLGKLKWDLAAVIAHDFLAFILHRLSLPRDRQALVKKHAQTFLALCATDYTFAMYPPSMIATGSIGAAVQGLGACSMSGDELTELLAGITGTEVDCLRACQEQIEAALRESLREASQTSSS
Outline: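 Human CDK4/truncated cyclin D3 (1-264) complex from baculovirus-infected insect cells, 5 nM, phosphorylating Rb fragment (residues 386-928, His-tagged) with 25 μM [32/33P]ATP in HEPES pH 7.4, MgCl2, 2% DMSO at 30° C. for 20 min (60 min for tight binders). Filter-captured radioactivity by phosphorimager; apparent Ki from competitive or tight-binding fits.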

[3] = tested on: HCT-116 cell line; assay: Inhibition of cell growth, tetrazolium salt (MTT) assay; type: cell-based; settings: for IC50: Homo sapiens, HCT-116, 120 h, MTT, three to five days, read-out: HCT-116 IC50; for HCT-116 % Inhibition at 0.25 μM: 0.25 μM compound
Outline: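 MTT colorimetric viability: three-to-five-day compound exposure in 0.5% (v/v) DMSO at 37° C, MTT 0.2 mg/mL for the last 4 h, A540 compared with vehicle-treated cells.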

[4] = 0.1 μM compound, HCT-116, Table 3

## Nc1nc(NC2CCN(S(=O)(=O)c3ccc(CCNc4ccccc4O)nc3)CC2)sc1C(=O)c1c(F)cccc1F [Example N1, [4-Amino-2-(1-{6-[2-(2-hydroxy-phenylamino)-ethyl]-pyridine-3-sulfonyl}-piperidin-4-ylamino)-thiazol-5-yl]-(2,6-difluoro-phenyl)-methanone Trifluoroacetic Acid Salt.]
[1]
  Ki: 0.28 nM
[2]
  Ki: 0.49 nM
[3]; first HCT-116 column (c4)
  IC50: 860 nM
[3]; second HCT-116 column (c5)
  IC50: 1600 nM

## CN(C)c1ccc(NC(=O)N2CCC(Nc3nc(N)c(C(=O)c4c(F)cccc4F)s3)CC2)cc1 [Example B2, 4-[4-Amino-5-(2,6-difluoro-benzoyl)-thiazol-2-ylamino]-piperidine-1-carboxylic Acid (4-Dimethylamino-phenyl)-amide]
[1]
  Ki: 28 nM
[2]
  Ki: 110 nM
[3]; first HCT-116 column (c4)
  IC50: 350 nM
[3]; second HCT-116 column (c5)
  IC50: 950 nM

## COc1ccc(Cl)cc1S(=O)(=O)N1CCC(Nc2nc(N)c(C(=O)c3c(F)cccc3F)s2)CC1 [Example P56]
[1]; 0.03 μM compound, Table 3
  CDK2 % Inhibition at 0.03 μM: 21%
[2]; 0.03 μM compound, Table 3
  CDK4 % Inhibition at 0.03 μM: 26%
[3]; [4]
  HCT-116 % Inhibition at 0.1 μM: 20%
[3]; HCT-116, Table 3
  HCT-116 % Inhibition at 0.25 μM: 34%

## Cn1nc(C(C)(C)C)cc1C(=O)N1CCC(Nc2nc(N)c(C(=O)c3c(F)cccc3F)s2)CC1 [Example R60]
[1]; at 0.03 μM
  CDK2 % Inhibition at 0.03 μM: 45%
[2]; at 0.03 μM
  CDK4 % Inhibition at 0.03 μM: 69%
[3]; HCT-116 cells, at 0.1 μM
  HCT-116 % Inhibition at 0.1 μM: 0%
[3]; HCT-116 cells
  HCT-116 5 Inhibition at 0.25 μM: 29

## Nc1nc(NC2CCN(C(=O)Nc3cccc(Cl)c3)CC2)sc1C(=O)c1c(F)cccc1F [Example O14]
[1]; 0.03 μM compound, Table 2
  CDK2 % Inhibition At 0.03 μM: 36%
[2]; 0.03 μM compound, Table 2
  CDK4 % Inhibition at 0.03 μM: 9%
[3]; HCT-116, Table 2
  HCT-116 % Inhibition at 0.25 μM: 23%

## CN(C)CC#Cc1ccc(S(=O)(=O)N2CCC(Nc3nc(N)c(C(=O)c4c(F)cccc4F)s3)CC2)cn1 [Example I11, 1-(4-Amino-2-{1-[6-(3-dimethylamino-prop-1-ynyl)-pyridine-3-sulfonyl]-piperidin-4-ylamino}-thiazol-5-yl)-1-(2,6-difluoro-phenyl)-methanone]
[1]
  Ki: < 0.5 nM
[2]
  Ki: 0.5 nM
[3]; first HCT-116 column (c4)
  IC50: 16 nM
[3]; second HCT-116 column (c5)
  IC50: 25 nM

## Cc1cc(C(=O)N2CCC(Nc3nc(N)c(C(=O)c4c(F)cccc4F)s3)CC2)no1 [Example R64]
[1]; at 0.03 μM
  CDK2 % Inhibition at 0.03 μM: 9%
[2]; at 0.03 μM
  CDK4 % Inhibition at 0.03 μM: 10%
[3]; HCT-116 cells, at 0.1 μM
  HCT-116 % Inhibition at 0.1 μM: 0%
[3]; HCT-116 cells
  HCT-116 5 Inhibition at 0.25 μM: 42

## Cn1cncc1C(=O)N1CCC(Nc2nc(N)c(C(=O)c3c(F)cccc3F)s2)CC1 [Example C15, 1-(4-Amino-2-{1-[1-(3-methyl-3H-imidazol-4-yl)-methanoyl]-piperidin-4-ylamino}-thiazol-5-y)-1-(2,6-difluoro-phenyl)-methanone]
[1]
  Ki: 150 nM
[2]
  Ki: 51 nM
[3]; first HCT-116 column (c4)
  IC50: > 5000 nM
[3]; second HCT-116 column (c5)
  IC50: > 5000 nM

## COC(=O)c1sccc1S(=O)(=O)N1CCC(Nc2nc(N)c(C(=O)c3c(F)cccc3F)s2)CC1 [Example P63]
[1]; 0.03 μM compound, Table 3
  CDK2 % Inhibition at 0.03 μM: 71%
[2]; 0.03 μM compound, Table 3
  CDK4 % Inhibition at 0.03 μM: 66%
[3]; [4]
  HCT-116 % Inhibition at 0.1 μM: 23%
[3]; HCT-116, Table 3
  HCT-116 % Inhibition at 0.25 μM: 40%

## Cc1cc(C)cc(C(=O)N2CCC(Nc3nc(N)c(C(=O)c4c(F)cccc4F)s3)CC2)c1 [Example R142]
[1]; at 0.03 μM
  CDK2 % Inhibition at 0.03 μM: 67%
[2]; at 0.03 μM
  CDK4 % Inhibition at 0.03 μM: 83%
[3]; HCT-116 cells, at 0.1 μM
  HCT-116 % Inhibition at 0.1 μM: 86%
[3]; HCT-116 cells
  HCT-116 5 Inhibition at 0.25 μM: 99

## COc1cccc(OC)c1C(=O)N1CCC(Nc2nc(N)c(C(=O)c3c(F)cccc3F)s2)CC1 [Example R118]
[1]; at 0.03 μM
  CDK2 % Inhibition at 0.03 μM: 36%
[2]; at 0.03 μM
  CDK4 % Inhibition at 0.03 μM: 33%
[3]; HCT-116 cells, at 0.1 μM
  HCT-116 % Inhibition at 0.1 μM: 7%
[3]; HCT-116 cells
  HCT-116 5 Inhibition at 0.25 μM: 47

## Nc1nc(NC2CCN(C(=O)c3c(Cl)cc(Cl)cc3Cl)CC2)sc1C(=O)c1c(F)cccc1F [Example R56]
[1]; at 0.03 μM
  CDK2 % Inhibition at 0.03 μM: 14%
[2]; at 0.03 μM
  CDK4 % Inhibition at 0.03 μM: 8%
[3]; HCT-116 cells, at 0.1 μM
  HCT-116 % Inhibition at 0.1 μM: 0%
[3]; HCT-116 cells
  HCT-116 5 Inhibition at 0.25 μM: 43

## N#Cc1cccc(S(=O)(=O)N2CCC(Nc3nc(N)c(C(=O)c4c(F)cccc4F)s3)CC2)c1 [Example P77]
[1]; 0.03 μM compound, Table 3
  CDK2 % Inhibition at 0.03 μM: 19%
[2]; 0.03 μM compound, Table 3
  CDK4 % Inhibition at 0.03 μM: 43%
[3]; [4]
  HCT-116 % Inhibition at 0.1 μM: 21%
[3]; HCT-116, Table 3
  HCT-116 % Inhibition at 0.25 μM: 20%

## Nc1nc(NC2CCN(S(=O)(=O)CCNCc3cccc(F)c3F)CC2)sc1C(=O)c1c(F)cccc1F [Example K45, (4-Amino-2-{1-[2-(2,3-difluoro-benzylamino)-ethanesulfonyl]-piperidin-4-ylamino}-thiazol-5-yl)-(2,6-difluoro-phenyl)-methanone]
[1]
  Ki: 0.82 nM
[2]
  Ki: 1 nM
[3]; first HCT-116 column (c4)
  IC50: 50 nM
[3]; second HCT-116 column (c5)
  IC50: 170 nM
